From ChEMBL document CHEMBL1147915, “Carbonic anhydrase inhibitors. Inhibition of isoforms I, II, IV, VA, VII, IX, and XIV with sulfonamides incorporating fructopyranose-thioureido tails” (Bioorg Med Chem Lett, 2007)

Legend:
Carbonic anhydrase 9 = Carbonic anhydrase 9 (Homo sapiens, UniProt Q16790)
Description: Inhibition of human recombinant CA9 after 15 mins by CO2 hydration stopped flow assay

Mus musculus [1] = test: Anticonvulsant activity in OF1 mouse at 50 mg/kg, ip after 2 hrs by MES test; format: functional; settings: route intraperitoneal
Mus musculus [2] = test: Anticonvulsant activity in OF1 mouse at 30 mg/kg, ip after 2 hrs by MES test; format: functional; settings: route intraperitoneal

Row | Ki (Carbonic anhydrase 9) [nM] | SMILES | Activity (Mus musculus [1]) [%] | Activity (Mus musculus [2]) [%]
1 | 82 | CC1(C)O[C@@H]2[C@@H](CO[C@@]3(CNC(=S)Nc4ccc(S(N)(=O)=O)cc4)OC(C)(C)O[C@@H]23)O1 | 0 | –
2 | 4500 | CC1(C)O[C@@H]2[C@@H](CO[C@@]3(CNC(=S)Nc4cccc(S(N)(=O)=O)c4)OC(C)(C)O[C@@H]23)O1 | 0 | –
3 | 110 | CC1(C)O[C@@H]2[C@@H](CO[C@@]3(CNC(=S)Nc4ccc(S(N)(=O)=O)cc4F)OC(C)(C)O[C@@H]23)O1 | 87.5 | –
4 | 76 | CC1(C)O[C@@H]2[C@@H](CO[C@@]3(CNC(=S)Nc4ccc(S(=O)(=O)Nc5nnc(S(N)(=O)=O)s5)cc4F)OC(C)(C)O[C@@H]23)O1 | 0 | –

The remaining lines, values behind:

Row | SMILES | Ki (Carbonic anhydrase 9) [nM] | Activity (Mus musculus [1]) [%] | Activity (Mus musculus [2]) [%]
5 | CC1(C)O[C@@H]2[C@@H](CO[C@@]3(CNC(=S)Nc4ccc(S(N)(=O)=O)cc4Cl)OC(C)(C)O[C@@H]23)O1 | 134 | 0 | –
6 | CC1(C)O[C@@H]2[C@@H](CO[C@@]3(CNC(=S)NCCc4ccc(S(N)(=O)=O)cc4)OC(C)(C)O[C@@H]23)O1 | – | 0 | –
7 | CC1(C)O[C@@H]2[C@@H](CO[C@@]3(CNC(=S)Nc4ccc(S(=O)(=O)NCc5ccc(S(N)(=O)=O)cc5)cc4F)OC(C)(C)O[C@@H]23)O1 | 11 | 20 | –
8 | NC(=O)N1c2ccccc2C=Cc2ccccc21 [CARBAMAZEPINE] | – | – | 100
9 | O=C1NC(=O)C(c2ccccc2)(c2ccccc2)N1 [PHENYTOIN] | – | – | 100
10 | CC1(C)O[C@@H]2[C@@H](CO[C@@]3(COS(N)(=O)=O)OC(C)(C)O[C@@H]23)O1 [TOPIRAMATE] | – | 68.75 | –
